The record followed here is patent publication US12240846B2 (Enliven Inc., priority 2020, dated 2025).

SMILES strings stand for the structures. Bounds are passed on as bounds.

In one experiment the test system is K562 cells. Put plainly: K562 cell proliferation assay (CellTiter-Glo). Particulars: Homo sapiens, K562 cell viability, 72 hours, read-out: Cell Line (IC50, nM) K562. The format is cell-based. A general note: In ATP-based viability assays light output follows the ATP content of the culture.
The subject of a further experiment is HL60 cells. Put plainly: HL60 cell proliferation assay (CellTiter-Glo). The format is cell-based. The settings on record: Homo sapiens, HL-60, HL60 cell viability, 72 hours, read-out: Cell Line (IC50, nM) HL60.
The next experiment concerns pCRKL in K562 cells. Put plainly: pCRKL ELISA assay in K562 cells. Type of experiment: cell-based. The settings on record: Homo sapiens, 1.5 h, 90 minutes incubation, read-out: pCRKL ELISA, Cell Line IC50 (nM) K562. How it is done:
(§1) K562 or Ba/F3 ABL T315I cells (2.0*10^5 cells/100 μl/well) were seeded in 96 well (Corning, cat #3799). Compounds were dissolved in DMSO, serially diluted in DMSO and then were added, mixed, and incubated for 90 minutes at 37° C., 5% CO2. Following the 90-minute incubation, plates were centrifuged for 5 min at 3000 RPM and supernatant was removed from each well. Cells were washed 3 times with 150 μl PBS prior to addition of 100 μl cell RIPA lysis buffer (Boston BioProducts, cat #BP-115D) supplied with 1× complete ULTRA cocktail inhibitor (Roche, 05892791001) and 1× PhosSTOP Phosphatase Inhibitor Cocktail Tablets (Roche, 04906837001). Cells were incubated with lysis buffer for 1 hour at 4° C. prior to storage at −80C.
(§2) A capture antibody able to detect phosphorylated and non-phosphorylated CRKL (R&D Systems, cat #AF5127) was added to Meso Scale Discovery (MSD) standard bind plates (MSD, cat #L15XA-3) at 5 ug/mL and incubated at 4° C. overnight. The next day, plates were washed with PBS+ 0.05% Tween20 (PBST) and 150 μl of 5% BSA blocking solution was added for 1 hour at room temperature with shaking. Plates were washed with PBST. Lysates were thawed and 30 μl of lysate was added to the MSD plates and incubated for 2 hours at room temperature with shaking. MSD plates were washed with PBST and 30 μl of a detection antibody that binds phosphorylated pCRKL (R&D Systems, cat #MAB6910) was added at 1 ug/mL to each well. Plates were incubated for 1 hour at room temperature with shaking. Plates were washed with PBST prior to addition of 30 μl of a sulfo tagged goat anti mouse detection antibody (MSD cat #R32AC-1). Plates were incubated for 1 hour at room temperature with shaking. Plates were washed with PBST prior to addition of 150 ul of 1×MSD read buffer T (MSD, cat #R92TC-2). Electrochemiluminescence (ECLU) was read on an MSD plate reader (Meso Scale Discovery). The remaining activity by calculated as follows: % Relative activity=100× (ELCUsample−ECLULC)/(ECLUHC−ECLULC). The low and high controls (LC/HC) are generated from lysate from wells without cells or with cells treated with 0.1% DMSO, respectively. IC50 values were calculated using XLFit software using a nonlinear regression model with a sigmoidal dose response and are shown in Table 4 and Table 5 below.
(In general: An ELISA detects its analyte on a solid surface through an enzyme-linked reagent.)

A further experiment has as its target ABL1 (T315I) (Homo sapiens, UniProt P00519, T315I). Put plainly: Luminescence-based ABL kinase assay (300 μM ATP), ADP-Glo. The format is biochemical. On the technique in general: ADP-Glo turns the ADP formed in a reaction into a luminescent signal.
The next experiment deals with T1, ABL1 (Homo sapiens, UniProt P00519).
T1 construct: purchased Carna Biosciences
Described as above. Type of experiment: biochemical. The text has this:
Compounds were serially diluted in DMSO. […] Luminescence signal positively correlates with kinase activity.

Experiment [1] concerns pCRKL in Ba/F3 ABL1 (T315I) cells. Put plainly: pCRKL ELISA assay in Ba/F3 ABL1 (T315I) cells. Type of experiment: cell-based. The settings on record: Mus musculus, BaF3, 1.5 h, 90 minutes incubation, read-out: pCRKL ELISA, Cell Line IC50 (nM) Ba/F3 ABL1 (T315I). How it is done: as §1, §2

As for `COc1cccc(F)c1-c1cc2cc(NC(=O)[C@@H]3C[C@@H]3F)ncc2n1C` [Compound 27, (1S,2S)-2-fluoro-N-[2-(2-fluoro-6-methoxyphenyl)-1-methylpyrrolo[2,3-c]pyridin-5-yl]cyclopropane-1-carboxamide], the IC50 stood at 112 nM with K562 cells; 761 nM with HL60 cells; 553 nM with pCRKL in K562 cells; 1.85 nM at ABL1 (T315I); 40.7 nM at ABL1.
The corresponding values for `Cn1c(-c2cccc3c2CCN3)cc2cc(NC(=O)[C@@H]3C[C@@H]3F)ncc21` [Compound 31, (1S,2S)-N-[2-(2,3-dihydro-1H-indol-4-yl)-1-methylpyrrolo[2,3-c]pyridin-5-yl]-2-fluorocyclopropane-1-carboxamide] are 143 nM, 514 nM, 83.2 nM, 9.48 nM and 10.7 nM.
Consider `COc1ncccc1-c1cc2cc(NC(=O)[C@@H]3C[C@@H]3F)ncc2n1C` [Compound 35, (1S,2S)-2-fluoro-N-[2-(2-methoxypyridin-3-yl)-1-methylpyrrolo[2,3-c]pyridin-5-yl]cyclopropane-1-carboxamide], for which the IC50 in the experiment with K562 cells is 123 nM; with HL60 cells, 4150 nM; in experiment [1], 329 nM; with pCRKL in K562 cells, 241 nM; against ABL1 (T315I), 79.6 nM; at ABL1, 39.7 nM.
Regarding `COc1ccccc1-c1c(C)c2cnc(NC(=O)[C@@H]3C[C@@H]3F)cc2n1C` [Compound 52, (1S,2S)-2-fluoro-N-(2-(2-methoxyphenyl)-1,3-dimethyl-1H-pyrrolo[3,2-c]pyridin-6-yl)cyclopropane-1-carboxamide], the IC50 with K562 cells was found to be 109 nM; in the experiment with HL60 cells it was 1200 nM; with pCRKL in K562 cells, 416 nM; at ABL1 (T315I) it was 4.23 nM; at ABL1, 51.3 nM.
As for `COc1ncc(F)c(OC)c1-c1cc2cc(NC(=O)[C@@H]3C[C@@H]3F)ncc2n1C` [Compound 38, (1S,2S)-2-fluoro-N-[2-(5-fluoro-2,4-dimethoxypyridin-3-yl)-1-methylpyrrolo[2,3-c]pyridin-5-yl]cyclopropane-1-carboxamide], the IC50 in the experiment with K562 cells was 27.5 nM; in the experiment with HL60 cells, 1350 nM; in experiment [1] it was 248 nM; in the experiment with pCRKL in K562 cells, 73.2 nM; at ABL1 (T315I) it was 23.9 nM; against ABL1, 11.3 nM.
For `COc1ccccc1-c1cc2cc(NC(=O)NCCN3CCN(C)CC3)ncc2n1C` [Compound 79, 3-[2-(2-methoxyphenyl)-1-methylpyrrolo[2,3-c]pyridin-5-yl]-1-[2-(4-methylpiperazin-1-yl)ethyl]urea], the IC50 in the experiment with K562 cells is 329 nM; in the experiment with HL60 cells, more than 10000 nM; with pCRKL in K562 cells, 594 nM; at ABL1 (T315I), 77 nM; at ABL1, 79.2 nM.
As for `COc1ncnc(OC)c1-c1cc2cc(NC(=O)[C@@H]3C[C@@H]3F)ncc2n1C` [Compound 39, (1S,2S)-N-[2-(4,6-dimethoxypyrimidin-5-yl)-1-methylpyrrolo[2,3-c]pyridin-5-yl]-2-fluorocyclopropane-1-carboxamide], the IC50 came to 33.6 nM in the experiment with K562 cells; 3780 nM in the experiment on HL60 cells; 263 nM in experiment [1]; 96.4 nM in the experiment on pCRKL in K562 cells; 71.8 nM at ABL1 (T315I); 36 nM against ABL1.
In the case of `COc1ccnc(OC)c1-c1cc2cc(NC(=O)[C@H]3C[C@@H]3CN3CCN(C)CC3)ncc2n1C` (single isomer, unassigned) [Compound 120], the IC50 with K562 cells was 47.6 nM; with HL60 cells, more than 10000 nM; in the experiment on pCRKL in K562 cells, 108 nM; at ABL1 (T315I), 39.8 nM; on ABL1 it was 27.1 nM.
`COc1cccc(F)c1-c1c(C)c2cnc(NC(=O)[C@@H]3C[C@@H]3F)cc2n1C` [Compound 54, (1S,2S)-2-fluoro-N-(2-(2-fluoro-6-methoxyphenyl)-1,3-dimethyl-1H-pyrrolo[3,2-c]pyridin-6-yl)cyclopropane-1-carboxamide]: the IC50 with K562 cells worked out at 51.1 nM; in the experiment on HL60 cells, 957 nM; with pCRKL in K562 cells it was 151 nM; against ABL1 (T315I) it was 6.51 nM; on ABL1 it was 51.9 nM.
The like results for `COc1ccccc1-c1c(C)c2cnc(NC(=O)[C@H]3C[C@H]3F)cc2n1C` [Compound 53, (1R,2R)-2-fluoro-N-[2-(2-methoxyphenyl)-1,3-dimethylpyrrolo[3,2-c]pyridin-6-yl]cyclopropane-1-carboxamide] were, in that order, 90.9 nM, more than 10000 nM, 574 nM, 8.3 nM and 82.4 nM.
The corresponding values for `[2H]C([2H])([2H])Oc1ncnc(OC([2H])([2H])[2H])c1-c1cc2cc(NC(=O)[C@@H]3C[C@@H]3F)ncc2n1C` [Compound 95, (1S,2S)-N-(2-(4,6-bis(methoxy-d3)pyrimidin-5-yl)-1-methyl-1H-pyrrolo[2,3-c]pyridin-5-yl)-2-fluorocyclopropane-1-carboxamide] are 47.8 nM, 3550 nM, 66.3 nM, 43.5 nM and 12.7 nM.
With `COc1ccnc(OC)c1-c1cc2cc(NC(=O)[C@H]3C[C@@H]3CN3CCNCC3)ncc2n1C` (single isomer, unassigned) [Compound 138], the IC50 with pCRKL in K562 cells turned out to be 254 nM; at ABL1 (T315I), 24.4 nM; against ABL1 it was 12.8 nM.
As for `[2H]C([2H])([2H])Oc1ncccc1-c1cc2cc(NC(=O)[C@@H]3C[C@@H]3F)ncc2n1C` [Compound 32, (1S,2S)-2-fluoro-N-(2-(2-(methoxy-d3)pyridin-3-yl)-1-methyl-1H-pyrrolo[2,3-c]pyridin-5-yl)cyclopropane-1-carboxamide], the IC50 in the experiment with K562 cells was 182 nM; with HL60 cells, 5120 nM; in the experiment with pCRKL in K562 cells it was 189 nM; at ABL1 (T315I) it was 83.1 nM; on ABL1, 28.6 nM.
As to `COc1ccc(F)cc1-c1cc2cc(NC(=O)[C@@H]3C[C@@H]3F)ncc2n1C` [Compound 26, (1S,2S)-2-fluoro-N-[2-(5-fluoro-2-methoxyphenyl)-1-methylpyrrolo[2,3-c]pyridin-5-yl]cyclopropane-1-carboxamide], the IC50 is 174 nM in the experiment with K562 cells; 2930 nM in the experiment with HL60 cells; 303 nM in the experiment on pCRKL in K562 cells; 8.99 nM on ABL1 (T315I); 30.3 nM against ABL1.
The like results for `COc1nccc(OC2CC2)c1-c1cc2cc(NC(=O)[C@@H]3C[C@@H]3F)ncc2n1C` [Compound 90, (1S,2S)-N-[2-(4-cyclopropoxy-2-methoxypyridin-3-yl)-1-methylpyrrolo[2,3-c]pyridin-5-yl]-2-fluorocyclopropane-1-carboxamide] were, in that order, 6.01 nM, 548 nM, 29.8 nM, 22.2 nM and 2.26 nM.
Turning to `CCOc1ncc(F)cc1-c1cc2cc(NC(=O)[C@@H]3C[C@@H]3F)ncc2n1C` [Compound 143, (1S,2S)-N-[2-(2-ethoxy-5-fluoropyridin-3-yl)-1-methylpyrrolo[2,3-c]pyridin-5-yl]-2-fluorocyclopropane-1-carboxamide], the IC50 in the experiment on K562 cells worked out at 289 nM; in the experiment with HL60 cells, 9800 nM; against ABL1 (T315I), 299 nM; against ABL1, 74.9 nM.
In the case of `COc1cccc(OC)c1-c1cc2cc(NC(=O)NCCN3CCNCC3)ncc2n1C` [Compound 81, 3-[2-(2,6-dimethoxyphenyl)-1-methylpyrrolo[2,3-c]pyridin-5-yl]-1-[2-(piperazin-1-yl)ethyl]urea], the IC50 in the experiment on K562 cells is 40.4 nM; in the experiment on HL60 cells, more than 10000 nM; against ABL1 (T315I), 23.5 nM; against ABL1, 17.2 nM.
